Experimental data reported in ChEMBL document CHEMBL1137827, “Spiroquinazolinones as novel, potent, and selective PDE7 inhibitors. Part 1” (Bioorg Med Chem Lett, 2004).

Tests used:
[1] = target: T1, cGMP-inhibited 3',5'-cyclic phosphodiesterase 3A (Homo sapiens, UniProt Q14432); assay: In vitro inhibition of human Phosphodiesterase 3A3 expressed in baculovirus infected Sf9 cells
Phosphodiesterase 1 [2] = target: T2, Phosphodiesterase 1 (Homo sapiens, UniProt P54750+Q01064+Q14123); assay: In vitro inhibition of human Phosphodiesterase 1 partially purified from THP-1 cells
[3] = target: T3, cGMP-specific 3',5'-cyclic phosphodiesterase (Homo sapiens, UniProt O76074); assay: In vitro inhibition of human Phosphodiesterase 5
[4] = target: T4, 3',5'-cyclic-AMP phosphodiesterase 4D (Homo sapiens, UniProt Q08499); assay: In vitro inhibition of human Phosphodiesterase 4D3 expressed in baculovirus infected Sf9 cells
[5] = target: T5, High affinity 3',5'-cyclic-AMP phosphodiesterase 7A (Homo sapiens, UniProt Q13946); assay: In vitro inhibition of human Phosphodiesterase 7A1 expressed in baculovirus infected Sf9 cells
Phosphodiesterase 1 [6] = target: T2, Phosphodiesterase 1; assay: Inhibition of human Phosphodiesterase 1 partially purified from THP-1 cells; assay type: cell-free
[7] = target: T4, 3',5'-cyclic-AMP phosphodiesterase 4D; assay: Inhibition of human Phosphodiesterase 4D3 expressed in baculovirus infected Sf9 cells
[8] = target: T3, cGMP-specific 3',5'-cyclic phosphodiesterase; assay: Inhibition of human Phosphodiesterase 5
[9] = target: T5, High affinity 3',5'-cyclic-AMP phosphodiesterase 7A; assay: Inhibition of human Phosphodiesterase 7A1 expressed in baculovirus infected Sf9 cells
[10] = target: T1, cGMP-inhibited 3',5'-cyclic phosphodiesterase 3A; assay: Inhibition of human Phosphodiesterase 3A3 expressed in baculovirus infected Sf9 cells

T1 sequence (Q14432 whole entry): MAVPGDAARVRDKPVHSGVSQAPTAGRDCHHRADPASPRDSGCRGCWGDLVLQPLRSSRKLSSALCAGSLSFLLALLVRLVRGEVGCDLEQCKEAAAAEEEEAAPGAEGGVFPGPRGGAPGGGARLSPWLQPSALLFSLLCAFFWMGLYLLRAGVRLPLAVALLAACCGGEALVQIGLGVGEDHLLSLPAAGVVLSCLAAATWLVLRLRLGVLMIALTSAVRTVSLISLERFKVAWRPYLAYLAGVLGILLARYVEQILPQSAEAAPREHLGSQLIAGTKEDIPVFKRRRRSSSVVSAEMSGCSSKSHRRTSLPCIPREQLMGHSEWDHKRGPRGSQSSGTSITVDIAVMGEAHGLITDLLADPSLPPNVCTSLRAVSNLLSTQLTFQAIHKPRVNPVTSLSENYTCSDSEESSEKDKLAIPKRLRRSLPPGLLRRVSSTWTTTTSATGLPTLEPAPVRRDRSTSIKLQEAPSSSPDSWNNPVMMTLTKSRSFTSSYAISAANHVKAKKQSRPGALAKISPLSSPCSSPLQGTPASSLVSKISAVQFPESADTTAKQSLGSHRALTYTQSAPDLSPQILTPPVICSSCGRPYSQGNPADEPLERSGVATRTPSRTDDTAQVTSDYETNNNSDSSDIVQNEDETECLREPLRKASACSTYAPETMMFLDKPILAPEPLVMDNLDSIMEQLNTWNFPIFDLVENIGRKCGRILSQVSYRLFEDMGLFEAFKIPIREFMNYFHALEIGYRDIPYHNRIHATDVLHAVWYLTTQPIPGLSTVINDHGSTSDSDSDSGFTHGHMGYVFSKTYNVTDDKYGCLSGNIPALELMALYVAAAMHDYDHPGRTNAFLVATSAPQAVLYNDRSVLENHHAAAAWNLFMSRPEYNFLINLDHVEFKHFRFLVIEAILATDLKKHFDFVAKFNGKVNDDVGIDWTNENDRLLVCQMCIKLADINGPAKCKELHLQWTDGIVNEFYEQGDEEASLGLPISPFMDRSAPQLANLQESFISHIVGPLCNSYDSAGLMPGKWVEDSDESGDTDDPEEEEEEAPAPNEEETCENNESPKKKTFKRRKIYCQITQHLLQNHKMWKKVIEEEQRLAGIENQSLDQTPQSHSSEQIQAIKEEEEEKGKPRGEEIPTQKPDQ
T5 sequence (Q13946 whole entry): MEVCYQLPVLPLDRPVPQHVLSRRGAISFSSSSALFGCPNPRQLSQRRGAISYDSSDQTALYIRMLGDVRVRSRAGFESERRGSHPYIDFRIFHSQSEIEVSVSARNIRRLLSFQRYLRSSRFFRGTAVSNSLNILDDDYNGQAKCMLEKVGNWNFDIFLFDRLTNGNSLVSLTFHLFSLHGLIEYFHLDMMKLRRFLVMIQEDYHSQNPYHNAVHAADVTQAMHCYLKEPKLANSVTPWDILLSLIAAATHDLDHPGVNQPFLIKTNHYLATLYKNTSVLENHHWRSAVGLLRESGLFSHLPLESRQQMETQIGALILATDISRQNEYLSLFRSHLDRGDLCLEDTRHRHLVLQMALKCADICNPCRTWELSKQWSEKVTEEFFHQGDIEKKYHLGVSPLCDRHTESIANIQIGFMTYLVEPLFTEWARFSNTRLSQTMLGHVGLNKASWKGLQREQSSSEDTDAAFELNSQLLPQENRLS
T4 sequence (Q08499 whole entry): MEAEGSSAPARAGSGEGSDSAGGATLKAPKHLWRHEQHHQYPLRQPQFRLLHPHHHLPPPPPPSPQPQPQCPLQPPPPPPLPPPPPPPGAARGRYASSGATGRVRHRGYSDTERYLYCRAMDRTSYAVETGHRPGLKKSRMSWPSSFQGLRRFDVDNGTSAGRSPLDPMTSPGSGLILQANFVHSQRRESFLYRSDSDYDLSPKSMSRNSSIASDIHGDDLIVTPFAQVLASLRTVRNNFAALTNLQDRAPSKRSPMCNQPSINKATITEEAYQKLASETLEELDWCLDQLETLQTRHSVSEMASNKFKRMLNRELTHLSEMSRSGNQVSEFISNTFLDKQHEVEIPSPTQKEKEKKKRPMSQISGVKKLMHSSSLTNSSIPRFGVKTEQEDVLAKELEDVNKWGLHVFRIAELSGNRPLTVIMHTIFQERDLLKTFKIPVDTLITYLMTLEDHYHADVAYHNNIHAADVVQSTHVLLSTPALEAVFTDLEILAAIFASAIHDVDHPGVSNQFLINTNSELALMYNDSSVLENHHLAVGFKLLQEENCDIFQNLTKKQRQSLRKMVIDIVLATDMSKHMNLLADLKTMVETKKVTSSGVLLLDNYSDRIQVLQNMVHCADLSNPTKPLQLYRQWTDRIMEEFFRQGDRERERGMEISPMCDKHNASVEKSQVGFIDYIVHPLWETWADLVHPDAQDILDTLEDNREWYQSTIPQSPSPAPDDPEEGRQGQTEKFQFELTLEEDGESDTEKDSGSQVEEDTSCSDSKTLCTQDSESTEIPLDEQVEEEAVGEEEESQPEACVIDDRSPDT

| Compound | IC50 [1] [nM] | IC50 (Phosphodiesterase 1 [2]) [nM] | IC50 [3] [nM] | IC50 [4] [nM] | IC50 [5] [nM] | IC50 [9] [nM] | also measured |
| --- | --- | --- | --- | --- | --- | --- | --- |
| CN(C)CCCNC(=O)c1cccc(-c2cc(Cl)c3c(c2)C2(CCCCC2)NC(=O)N3)c1 | 78100 | 5160 | > 84900 | 1460 | 10 |  |  |
| O=C1Nc2c(Cl)cc(-c3ccccc3)cc2C2(CCCCC2)N1 |  |  |  |  |  | 10 | IC50 (Phosphodiesterase 1 [6]): 3260 nM; IC50 [7]: 1420 nM; IC50 [8]: 69800 nM; IC50 [10]: > 101000 nM |
| CCC1(CC)NC(=O)Nc2c(Br)cccc21 |  |  |  |  |  | 6540 |  |
| O=C1Nc2c(I)cccc2C2(CCCCC2)N1 |  |  |  |  |  | 6850 |  |
| O=C1Nc2ccc(-c3ccccc3)cc2C2(CCCCC2)N1 |  |  |  |  |  | 980 |  |
| COc1ccc2c(c1)C1(CCCCC1)NC(=O)N2 |  |  |  |  |  | 3200 |  |
| O=C1Nc2c(Cl)cc(-c3cccnc3)cc2C2(CCCCC2)N1 | 14800 | 2860 | 19300 | 1550 | 50 |  |  |
| COc1cc(Cl)c2c(c1)C1(CCCCC1)NC(=O)N2 |  |  |  |  |  | 160 |  |
| O=C1Nc2cc(Cl)ccc2C2(CCCCC2)N1 |  |  |  |  |  | 2700 |  |
| O=C1Nc2c(Cl)cc(-c3ccc(C(=O)O)cc3)cc2C2(CCCCC2)N1 | 21300 | 890 | 8500 | 470 | 10 |  |  |
| O=C1Nc2c(Br)cccc2C2(CCCCC2)N1 |  |  |  |  |  | 60 |  |
| CC1CCC2(CC1)NC(=O)Nc1c(Br)cccc12 (configuration not stated) |  |  |  |  |  | 210 |  |
| CN1CCN(C(=O)c2ccccc2-c2cc(Cl)c3c(c2)C2(CCCCC2)NC(=O)N3)CC1 | > 92000 | 20100 | > 101000 | 15700 | 1520 |  |  |
| CCCC1(CCC)NC(=O)Nc2c(Br)cccc21 |  |  |  |  |  | 2660 |  |
| O=C1Nc2c(Cl)cc(-c3ccccn3)cc2C2(CCCCC2)N1 | 45100 | 8300 | 68400 | 1800 | 30 |  |  |
| O=C1Nc2ccc(Cl)c(Cl)c2C2(CCCCC2)N1 |  |  |  |  |  | 600 |  |
| O=C1Nc2c(F)cccc2C2(CCCCC2)N1 |  |  |  |  |  | 390 |  |
| COc1ccc2c(c1)NC(=O)NC21CCCCC1 |  |  |  |  |  | 9500 |  |
| CN(C)CCNC(=O)c1ccc(-c2cc(Cl)c3c(c2)C2(CCCCC2)NC(=O)N3)cc1 | 42200 | 6290 | > 67300 | 1630 | 20 |  |  |
| CN(C)CCCNC(=O)c1ccc(-c2cc(Cl)c3c(c2)C2(CCCCC2)NC(=O)N3)cc1 | 44500 | 6470 | > 50700 | 1500 | 20 |  |  |

Further lines, with some results ahead:

| IC50 [1] [nM] | IC50 (Phosphodiesterase 1 [2]) [nM] | IC50 [3] [nM] | IC50 [4] [nM] | IC50 [5] [nM] | IC50 [9] [nM] | Compound | also measured |
| --- | --- | --- | --- | --- | --- | --- | --- |
| 29300 | 7010 |  | 1700 | 10 |  | CN1CCN(C(=O)c2ccc(-c3cc(Cl)c4c(c3)C3(CCCCC3)NC(=O)N4)cc2)CC1 | IC50 [8]: 29300 nM |
|  |  |  |  |  | 4800 | O=C1Nc2ccc(Cl)cc2C2(CCCCC2)N1 |  |
|  |  |  |  |  | 790 | Cc1cccc2c1NC(=O)NC21CCCCC1 |  |
|  |  |  |  |  | 3700 | O=C1Nc2cc(Cl)c(Cl)cc2C2(CCCCC2)N1 |  |
|  |  |  |  |  | 120 | O=C1Nc2c(Cl)cc(Cl)cc2C2(CCCCC2)N1 |  |
|  |  |  |  |  | 1400 | O=C1Nc2c(Br)cccc2C2(CCC2)N1 |  |
|  |  |  |  |  | 6600 | O=C1Nc2ccccc2C2(CCCCC2)N1 |  |
| 11200 | 3010 | 9470 | 1010 | 30 |  | O=C1Nc2c(Cl)cc(-c3ccncc3)cc2C2(CCCCC2)N1 |  |
|  |  |  |  |  | 2960 | O=C1Nc2c(C(F)(F)F)cccc2C2(CCCCC2)N1 |  |
| 280 | 1280 |  |  | 20 |  | NC(=O)c1ccc(-c2cc(Cl)c3c(c2)C2(CCCCC2)NC(=O)N3)cc1 | IC50 [7]: 690 nM; IC50 [8]: 11600 nM |
| 31600 | 6390 | 52400 | 1310 |  | 40 | CN1CCN(C(=O)c2cccc(-c3cc(Cl)c4c(c3)C3(CCCCC3)NC(=O)N4)c2)CC1 |  |
|  |  |  |  |  | 160 | Cc1cc(Cl)c2c(c1)C1(CCCCC1)NC(=O)N2 |  |
|  |  |  |  |  | 840 | O=C1Nc2cccc(Cl)c2C2(CCCCC2)N1 |  |
| > 79900 | 11600 | > 101000 | 1590 | 20 |  | CN(C)CCNC(=O)c1cccc(-c2cc(Cl)c3c(c2)C2(CCCCC2)NC(=O)N3)c1 |  |
|  |  |  |  |  | 60 | O=C1Nc2c(Br)cccc2C2(CCCCCC2)N1 |  |
| 16700 | 710 | 12600 | 740 | 20 |  | O=C1Nc2c(Cl)cc(-c3cccc(C(=O)O)c3)cc2C2(CCCCC2)N1 |  |
